Test system: male broiler chickens (Cobb-500)
Test: In vivo broiler trial 1: growth performance under litter/density challenge
Procedure: The trial was performed at Poultrz section, INTA-EEA Pergamino, Buenos Aires, Argentina from Aug. 15, 2017 to Oct. 3, 2017. Day-old male broiler chickens (“Cobb-500”), were supplied by a commercial hatchery (Granja Tres Arroyos, Tres Arroyos 378, Buenos Aires, Argentina).
Birds were housed in a conventional barn (netting open sides with curtains) into floor pens with shaving wood as litter. Gas heaters, fans and foggers were used to control the barn temperature.
All birds were weighed, separated in categories of 1 g and distributed to form homogenous lots. Birds of extreme weights were excluded.
Feed and waer were providing ad-libitum.
The experimental diets (Starter, Growing, Finisher and last week) were based on corn, soybean meal as main ingredients (Table 3). Phytase (RONOZYME® HiPhos GT, dose 1000 FYT/kg of feed, 100 g/tn of feed) was used in all the treatments. Rovimix broilders from DSM was used as vitamin-mineral premix, and maduramycin as coccidiostat. The composition of the feed was listed as Table 4
Individual body weight and pen feed intake were determined weekly.
Based on this information feed conversion and weight gain were calculated considering each phase and the complete cycle.
The live weight/feed conversion ratio was used. This is a simplification to avoid the impact of mortality when a low number of birds per pen is used (18 in this experiment).
Uniformity (% of birds included in a range of weights of […] of the pen mean body weight) was determined in each pen at 48 days of age.

Substance: Enramycin
- effect on feed conversion (Enramycin significant from day 35, muramidase at day 7 and from day 21): the feed conversion was improved
- reduction of days to reach the slaughtering weight (2800 g) (effect of inclusion in feed (Enramycin 10 ppm; Muramidase 392 ppm)): 1.1 days
- effect on body weight (significant from day 21): an increment in body weight was observed

— US20220031815A1, “ANIMAL FEED COMPOSITION AND USE THEREOF” (DSM IP ASSETS B.V., priority 2018, published 2022)
